Earlier results, collected in patent US20210113495A1, “METHOD OF TREATING EPILEPSY OR EPILEPTIC ENCEPHALOPATHY WITH FENFLURAMINE IN PATIENTS WITHOUT PULMONARY HYPERTENSION” (ZOGENIX INTERNATIONAL LIMITED, priority 2018, published 2021).

How the values were obtained:
[1] = tested on: children with refractory epilepsy; details: dose of 0.5 to 1 mg/kg/day
[2] = tested on: child suffering pattern sensitivity-induced seizures; details: one child, seizures resistant to anticonvulsive treatment
[3] = tested on: self-induced photosensitive seizures; details: four cases
patients with PH [4] = tested on: patients with PH
[5] = tested on: pulmonary arterial hypertension patients; details: PAH patients who had started treatment with bosentan
patients with PH [6] = details: short-term infusion
[7] = initial right heart catheterization, resting, 15 women who had used fenfluramine, mean (SD)

CCNC(C)Cc1cccc(C(F)(F)F)c1 (racemic) [fenfluramine, (RS)—N-ethyl-1-[3-(trifluoromethyl)phenyl]propan-2-amine]
number of seizures experienced by the patients [1]: reduction in the number of seizures
effect on self-induced seizures [2]: successfully terminated these self-induced seizures
response of self-induced photosensitive seizures [3]: responded to treatment with fenfluramine
users with close temporal relation between fenfluramine use and development of exertional dyspnoea (patients with PH [4]; 10 of 15 women with PH who had used fenfluramine): 67%
overall survival, fenfluramine users vs controls (patients with PH [4]; PH patients, transplant recipients excluded): no significant difference in overall survival
pulmonary artery pressure (PAP) (patients with PH [4]; [7]): 57 (9) mm Hg
pulmonary vascular resistance (PVR) (patients with PH [4]; [7]): 29 (10) U/m^2

COc1ccccc1Oc1c(NS(=O)(=O)c2ccc(C(C)(C)C)cc2)nc(-c2ncccn2)nc1OCCO [bosentan]
patients alive at 2 years [5]: 89%

CCCCC[C@H](O)/C=C/[C@@H]1[C@H]2C/C(=C/CCCC(=O)O)O[C@H]2C[C@H]1O [epoprostenol]
mean fall in PVR compared with control values (patients with PH [6]; 10 responding patients, mean (SD)): 24 (15%)
vasodilator response (patients with PH [6]; 15 women with PH who had used fenfluramine): significant vasodilator response in 10 patients
